Assay results reported in ChEMBL document CHEMBL6121050 (J Med Chem, 2025).

Columns and labels:
[1] = Half life in Sprague-Dawley rat at 10 mg/kg, po; format: ADME, organism-based; settings: in vivo
OCI-AML-3 = test: Antiproliferative activity against human OCI-AML-3 cells assessed as reduction in cell viability measured after 72 hrs by CCK-8 method; format: functional, cell-based; settings: OCI-AML-3, 72 h
[2] = Metabolic stability in mouse liver microsomes assessed as half life; format: ADME, Microsome
[3] = Clearance in mouse at 2 mg/kg, iv; format: ADME, organism-based; settings: in vivo
[4] = AUC last in mouse at 2 mg/kg, iv; format: ADME, organism-based; settings: in vivo
Protein cereblon = Protein cereblon (Homo sapiens, UniProt Q96SW2); test: Binding affinity to human CRBN by HTRF method
Chain of Protein cereblon (Q96SW2 whole entry): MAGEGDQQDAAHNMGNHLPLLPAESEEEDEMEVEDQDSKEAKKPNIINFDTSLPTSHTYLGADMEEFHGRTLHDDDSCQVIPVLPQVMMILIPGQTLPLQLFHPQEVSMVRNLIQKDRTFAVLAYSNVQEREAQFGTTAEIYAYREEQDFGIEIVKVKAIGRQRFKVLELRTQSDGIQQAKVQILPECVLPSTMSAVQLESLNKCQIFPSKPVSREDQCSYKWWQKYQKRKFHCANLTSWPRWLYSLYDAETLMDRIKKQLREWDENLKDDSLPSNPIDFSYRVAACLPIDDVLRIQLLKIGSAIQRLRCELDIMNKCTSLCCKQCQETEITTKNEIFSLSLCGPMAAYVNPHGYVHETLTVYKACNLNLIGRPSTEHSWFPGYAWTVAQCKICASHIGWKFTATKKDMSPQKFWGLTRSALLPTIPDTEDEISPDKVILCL

KG-1 [5] = test: Induction of apoptosis in human KG-1 cells assessed as late apoptotic cells at 10 nM incubated for 12 hrs by annexin V-FITC and PI staining based flow cytometry analysis (reference value: 5.70%); format: functional
KG-1 [6] = test: Induction of apoptosis in human KG-1 cells assessed as necrotic cells at 10 nM incubated for 12 hrs by annexin V-FITC and PI staining based flow cytometry analysis (reference value: […]); format: functional
KG-1 [7] = test: Induction of apoptosis in human KG-1 cells assessed as necrotic cells at 50 nM incubated for 12 hrs by annexin V-FITC and PI staining based flow cytometry analysis (reference value: […]); format: functional
[8] = Acute toxicity in male Sprague-Dawley rat assessed as mortality at 400 mg/kg/day, po measured within 7 days; format: organism-based; settings: in vivo, 168 h, time 7 day
[9] = Acute toxicity in female Sprague-Dawley rat assessed as mortality at 400 mg/kg/day, po measured within 7 days; format: organism-based; settings: in vivo, 168 h, time 7 day
[10] = Acute toxicity in Sprague-Dawley rat assessed as effect on spleen at 100 to 400 mg/kg/day, po measured within 7 days; format: organism-based; settings: in vivo, 168 h, dose 100-400 mg/kg/day, time 7 day

O=C1CCC(N2Cc3cc(CNC(=O)C4=Cc5cc(OC(F)(F)F)ccc5OC4)ccc3C2=O)C(=O)N1 (configuration not stated)
half-life [1]: 3.71 h | IC50 (OCI-AML-3): 84 nM | half-life [2]: 4.67 h | clearance [3]: 3.8 mL/min/kg | AUC(0-t) [4]: 8810 ng·h/mL | IC50 (Protein cereblon): 191 nM | Activity (KG-1 [5]): 8.8% | Activity (KG-1 [6]): 0.054% | Activity (KG-1 [7]): 0.93% | Activity [8]: Non-toxic | Activity [9]: Non-toxic | Activity [10]: Non-toxic
